# In ChEMBL document CHEMBL4376811, “Naturally Occurring Lumazines” (J Nat Prod, 2019):
# Tests used:
# PC-12 = assay: Anti-anoxic activity in rat PC12 cells reduction in assessed as sodium hydrosulfite-induced cell injury; assay type: functional, cell-based
# Cathepsin B = Cathepsin B (Homo sapiens, UniProt P07858); assay: Inhibition of cathepsin B (unknown origin) assessed as reduction in enzyme activity
# [1] = target: Sodium/potassium-transporting ATPase; assay: Inhibition of Na+/K+-ATPase in human placental syncytiotrophoblast-microvillous membranes/basal membranes using 3-O-methylfluorescein phosphate by fluorometric method
# Sortase A = target: T1, Sortase A (Staphylococcus aureus, UniProt Q9S446); assay: Inhibition of recombinant Staphylococcus aureus ATCC 6538p sortase A incubated for 1 hr in presence of (Dabcyl-QALPETGEE-Edans substrate by fluorescence spectrophotometry
# T1 sequence (Q9S446 whole entry): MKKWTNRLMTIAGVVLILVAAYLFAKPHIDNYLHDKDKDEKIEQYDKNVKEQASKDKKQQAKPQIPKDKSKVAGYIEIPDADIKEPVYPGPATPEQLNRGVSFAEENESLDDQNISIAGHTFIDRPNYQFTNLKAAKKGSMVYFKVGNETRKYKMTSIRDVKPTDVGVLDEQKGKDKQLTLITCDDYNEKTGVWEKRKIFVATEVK
# [2] = Inhibition of Magnaporthe grisea Guy 11 isocitrate lyase; design: species or system Pyricularia grisea
Compound,EC50 (PC-12) [µg/mL],IC50 [1] [µM],IC50 (Sortase A) [µM],IC50 [2] [µM],other results
CSc1c(C(=O)O)sc2nc3[nH]c(=O)[nH]c(=O)c3nc12,27,,,,
CN(CCc1cnc[nH]1)c1cnc2[nH]c(=O)[nH]c(=O)c2n1,,,,,IC50 (Cathepsin B): 4.87 µM
CSc1c(C(=O)CO)sc2nc3[nH]c(=O)[nH]c(=O)c3nc12,19.5,,,,
COC(=O)c1ccccc1NC(=O)[C@H](CO)NC(=O)c1cnc2c(n1)c(=O)[nH]c(=O)n2C,,> 100,> 100,> 100,
COC(=O)c1ccccc1NC(=O)[C@@H](NC(=O)c1cnc2c(n1)c(=O)[nH]c(=O)n2C)[C@@H](C)O,,> 100,> 100,> 100,
COCCOC(=O)C1=C(C)NC(C)=C(C(=O)OC(C)C)C1c1cccc([N+](=O)[O-])c1 (stereo not given) [NIMODIPINE],1.29,,,,
